From ChEMBL document CHEMBL1201862, “PubChem BioAssay data set” (2004)
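Cultured in 96-well plates, cells were exposed to test compound for 48 hours across five concentrations. At the GI50, growth is halved.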 Activity calls are given as the source filed them. Cut-off read from the data, not from the text of the source: active = GI50 up to about 1.1 µM and inactive = higher.

Legend:
Assay in all cases: NCI anticancer screen, dose series, 48 h
[1] = test system: A549
[2] = test system: CCRF-CEM
[3] = test system: COLO 205
[4] = test system: HCT-116
[5] = test system: HOP-92
[6] = test system: IGROV-1
[7] = test system: MCF7
[8] = test system: MOLT-4
[9] = test system: NCI-H522
[10] = test system: OVCAR-3
[11] = test system: RPMI-8226
[12] = test system: SF-539
[13] = test system: SK-MEL-5
[14] = test system: SK-OV-3
[15] = test system: SN12C
[16] = test system: SR
[17] = test system: SW-620
[18] = test system: T47D
[19] = test system: TK-10

Row | Structure (SMILES) | GI50 [1] | GI50 [2] | GI50 [3] | GI50 [4] | GI50 [5] | GI50 [6] | GI50 [7] | GI50 [8] | GI50 [9] | GI50 [10] | GI50 [11] | GI50 [12] | GI50 [13] | GI50 [14] | GI50 [15] | GI50 [16] | GI50 [17] | GI50 [18] | GI50 [19]
1 | N#C/C(=C(\O)C(=O)O)c1ccc(-c2cccc3ccccc23)cc1 | > 100 µM (inactive) | 14.1 µM (inactive) | > 100 µM (inactive) | > 100 µM (inactive) | > 100 µM (inactive) | > 100 µM (inactive) | > 100 µM (inactive) | 1.51 µM (inactive) | > 100 µM (inactive) | > 100 µM (inactive) | 29 µM (inactive) | > 100 µM (inactive) | > 100 µM (inactive) | > 100 µM (inactive) | > 100 µM (inactive) | 3.11 µM (inactive) | > 100 µM (inactive) | > 100 µM (inactive) | > 100 µM (inactive)
2 | Cc1cc(Cc2cc(C)cc(C(C)(C)C)c2O)c(O)c(Cc2cc(C)cc(C(C)(C)C)c2O)c1 | 3.06 µM (inactive) | 1.73 µM (inactive) | 4.53 µM (inactive) | 1.92 µM (inactive) | 2.24 µM (inactive) | 3.25 µM (inactive) | 2.34 µM (inactive) | 1.41 µM (inactive) | 0.931 µM (active) | 2.69 µM (inactive) | 0.724 µM (active) | 2.51 µM (inactive) | 1.08 µM (active) | 3.33 µM (inactive) | 2.34 µM (inactive) | 2.54 µM (inactive) | 3.34 µM (inactive) | 3.01 µM (inactive) | 3.03 µM (inactive)
3 | CC1(C)CN=C(Nc2ccc(F)c(F)c2)S1 | > 100 µM (inactive) | > 100 µM (inactive) | > 100 µM (inactive) | > 100 µM (inactive) | 31.4 µM (inactive) | > 100 µM (inactive) | > 100 µM (inactive) | > 100 µM (inactive) | > 100 µM (inactive) | > 100 µM (inactive) | > 100 µM (inactive) | > 100 µM (inactive) | > 100 µM (inactive) | > 100 µM (inactive) | > 100 µM (inactive) | > 100 µM (inactive) | > 100 µM (inactive) | > 100 µM (inactive) | > 100 µM (inactive)
4 | CN(C)CCCN=C(N)N | > 100 µM (inactive) | > 100 µM (inactive) | > 100 µM (inactive) | > 100 µM (inactive) | > 100 µM (inactive) | > 100 µM (inactive) | > 100 µM (inactive) | > 100 µM (inactive) | > 100 µM (inactive) | > 100 µM (inactive) | > 100 µM (inactive) | > 100 µM (inactive) | > 100 µM (inactive) | > 100 µM (inactive) | > 100 µM (inactive) | > 100 µM (inactive) | > 100 µM (inactive) | > 100 µM (inactive) | > 100 µM (inactive)
5 | NS(=O)(=O)c1ccc(NCc2cnc3ccccc3n2)cc1 | > 100 µM (inactive) | > 100 µM (inactive) | > 100 µM (inactive) | > 100 µM (inactive) | > 100 µM (inactive) | > 100 µM (inactive) | > 100 µM (inactive) | > 100 µM (inactive) | > 100 µM (inactive) | > 100 µM (inactive) | > 100 µM (inactive) | > 100 µM (inactive) | > 100 µM (inactive) | > 100 µM (inactive) | > 100 µM (inactive) | > 100 µM (inactive) | > 100 µM (inactive) | > 100 µM (inactive) | > 100 µM (inactive)
6 | O=C(CCc1cc(O)cc(O)c1)NCCCNC(=O)CCc1cc(O)cc(O)c1 | > 100 µM (inactive) | > 100 µM (inactive) | > 100 µM (inactive) | > 100 µM (inactive) | > 100 µM (inactive) | > 100 µM (inactive) | > 100 µM (inactive) | > 100 µM (inactive) | > 100 µM (inactive) | > 100 µM (inactive) | > 100 µM (inactive) | > 100 µM (inactive) | > 100 µM (inactive) | > 100 µM (inactive) | > 100 µM (inactive) | > 100 µM (inactive) | > 100 µM (inactive) | > 100 µM (inactive) | > 100 µM (inactive)
7 | CC(SCc1ccccc1)C(=O)O (stereo not drawn) | > 100 µM (inactive) | > 100 µM (inactive) | > 100 µM (inactive) | > 100 µM (inactive) | > 100 µM (inactive) | > 100 µM (inactive) | > 100 µM (inactive) | > 100 µM (inactive) | > 100 µM (inactive) | > 100 µM (inactive) | > 100 µM (inactive) | > 100 µM (inactive) | > 100 µM (inactive) | > 100 µM (inactive) | > 100 µM (inactive) | > 100 µM (inactive) | > 100 µM (inactive) | > 100 µM (inactive) | > 100 µM (inactive)
8 | CCSc1nnc2c(-c3ccccc3)n[nH]c2n1 | > 100 µM (inactive) | 24.3 µM (inactive) | > 100 µM (inactive) | > 100 µM (inactive) | 37.4 µM (inactive) | > 100 µM (inactive) | > 100 µM (inactive) | > 100 µM (inactive) | > 100 µM (inactive) | > 100 µM (inactive) | > 100 µM (inactive) | 90.8 µM (inactive) | > 100 µM (inactive) | 44.3 µM (inactive) |  | > 100 µM (inactive) | > 100 µM (inactive) | > 100 µM (inactive) | > 100 µM (inactive)
9 | O=c1c2cc(I)ccc2nc(Sc2ncccc2[N+](=O)[O-])n1Cc1ccccc1 | 28 µM (inactive) | 0.249 µM (active) | 27.5 µM (inactive) | 18.8 µM (inactive) | 5.33 µM (inactive) | 13.7 µM (inactive) | 18.3 µM (inactive) | 23.2 µM (inactive) | 13.2 µM (inactive) | 22 µM (inactive) | 19.1 µM (inactive) | 32.2 µM (inactive) | 18.3 µM (inactive) | 63.1 µM (inactive) | 20.6 µM (inactive) | 7.08 µM (inactive) | 33.1 µM (inactive) | 26.3 µM (inactive) | 37.2 µM (inactive)
10 | COC(=O)/C(C)=N/N=C(\S)SC |  | 0.0428 µM (active) |  | 31.6 µM (inactive) | > 100 µM (inactive) | 47.5 µM (inactive) | 35.4 µM (inactive) | 55.1 µM (inactive) | 22.7 µM (inactive) | 24.8 µM (inactive) | 66.4 µM (inactive) | 82.6 µM (inactive) | 29.2 µM (inactive) | > 100 µM (inactive) |  | 49.7 µM (inactive) | 44.3 µM (inactive) | 18.1 µM (inactive) | 95.5 µM (inactive)
11 | Cn1c(N)c(/N=N/c2ccc(S(N)(=O)=O)cc2)c(=O)n(C)c1=O | > 100 µM (inactive) | > 100 µM (inactive) | > 100 µM (inactive) | > 100 µM (inactive) | > 100 µM (inactive) | > 100 µM (inactive) | > 100 µM (inactive) | > 100 µM (inactive) | 80.9 µM (inactive) | > 100 µM (inactive) | > 100 µM (inactive) | > 100 µM (inactive) | > 100 µM (inactive) | 79.8 µM (inactive) | > 100 µM (inactive) | > 100 µM (inactive) | > 100 µM (inactive) | > 100 µM (inactive) | > 100 µM (inactive)
12 | O=C(Nn1cnn2c(=O)c3ccccc3nc2c1=O)c1ccccc1 | > 100 µM (inactive) | > 100 µM (inactive) | > 100 µM (inactive) | > 100 µM (inactive) | > 100 µM (inactive) | > 100 µM (inactive) | > 100 µM (inactive) |  | > 100 µM (inactive) | > 100 µM (inactive) | > 100 µM (inactive) | > 100 µM (inactive) | > 100 µM (inactive) | > 100 µM (inactive) | > 100 µM (inactive) | > 100 µM (inactive) | > 100 µM (inactive) | > 100 µM (inactive) | > 100 µM (inactive)
13 | COc1ccc(S(=O)(=O)NC(CCC(=O)NC(N)=O)C(=O)NC(N)=O)cc1 (stereo not drawn) | > 100 µM (inactive) | > 100 µM (inactive) | > 100 µM (inactive) | > 100 µM (inactive) | > 100 µM (inactive) | > 100 µM (inactive) | > 100 µM (inactive) | > 100 µM (inactive) | > 100 µM (inactive) | > 100 µM (inactive) | > 100 µM (inactive) | > 100 µM (inactive) | > 100 µM (inactive) | > 100 µM (inactive) | > 100 µM (inactive) | > 100 µM (inactive) | > 100 µM (inactive) | > 100 µM (inactive) | > 100 µM (inactive)
14 | CN1CCN(Cc2cc3c(nn2)-c2ccccc2C3=O)CC1 | > 100 µM (inactive) | 54.6 µM (inactive) | 17.7 µM (inactive) | 30.4 µM (inactive) | > 100 µM (inactive) | 38.5 µM (inactive) | 30.8 µM (inactive) | 38.7 µM (inactive) | 14.3 µM (inactive) |  | > 100 µM (inactive) | 72.9 µM (inactive) | 16.9 µM (inactive) | > 100 µM (inactive) |  | 18.3 µM (inactive) | 52.7 µM (inactive) | 49 µM (inactive) | > 100 µM (inactive)
15 | COc1ccc2nc3cc(Cl)ccc3c(NCCCNCCCNc3c4ccc(Cl)cc4nc4ccc(OC)cc34)c2c1 | 0.0132 µM (active) | < 0.01 µM (active) | < 0.011 µM (active) | < 0.01 µM (active) | 0.0719 µM (active) | 0.0164 µM (active) | 0.012 µM (active) | 0.329 µM (active) | 0.0128 µM (active) | 0.162 µM (active) | 0.0826 µM (active) | 0.0157 µM (active) | 0.0247 µM (active) | 0.0352 µM (active) | < 0.01 µM (active) | < 0.01 µM (active) | 0.0131 µM (active) | 0.0625 µM (active) | 0.0741 µM (active)
